One series deals with MT1 receptors (Homo sapiens, UniProt P48039). The note with it: relative to parent drug; cited from earlier work.
In a further series the target is T1, MT2 receptors (Homo sapiens, UniProt P49286).
T1 sequence (P49286 1-362): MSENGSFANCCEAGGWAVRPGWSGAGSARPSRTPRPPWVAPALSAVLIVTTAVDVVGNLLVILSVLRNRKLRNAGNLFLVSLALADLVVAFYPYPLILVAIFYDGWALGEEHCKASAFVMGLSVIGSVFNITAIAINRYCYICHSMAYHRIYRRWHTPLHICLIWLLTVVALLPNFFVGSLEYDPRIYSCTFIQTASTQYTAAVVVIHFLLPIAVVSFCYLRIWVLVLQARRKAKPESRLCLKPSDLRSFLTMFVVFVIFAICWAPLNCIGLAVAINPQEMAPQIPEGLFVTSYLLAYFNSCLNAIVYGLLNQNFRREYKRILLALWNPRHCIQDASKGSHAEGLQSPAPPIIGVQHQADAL
The note with it: relative to parent drug; cited from earlier work.

The subject of a further series is hepatic tumors. To be noted: high concentration; chronic toxicology study; cited from earlier work.
Series [1] can be described thus: Pharmacokinetics of ramelteon after nasal and oral administration. The arrangement: species or system SD rats. The note with it: Sprague-Dawley (SD), rat, in vivo. The protocol:
The objective was to study the pharmacokinetics of Ramelteon by determining the plasma concentrations after oral and intranasal administration. SD rats (n=3-4 for each dose) received an intranasal dose (0.1 mg/animal) of nasal solution composition (RNS-01, 2.5 mg/mL) which was prepared according to the EXAMPLE 1 of this invention, and an oral dose (0.1 mg/animal) of […] oral solution (ROS-01) which was prepared by directly dissolving ramelteon into saline solution to the final concentration of 0.1 mg/mL. Multiple blood samples were collected from tail vein until 6 hrs. Ramelteon concentration in rat plasma was determined using a validated LC/MS/MS method. The standard non-compartmental method was used to generate the pharmacokinetic parameters.

Another series deals with Caco-2 monolayer. Briefly: Permeability through Caco-2 monolayer. The series is classed as in vitro ADME. The note with it: in vitro. For orientation: Caco-2 monolayers are a common model of the intestinal barrier.
For series [2] the following is noted: cited from earlier work.
The test system of series [3] is other CNS receptors associated with sedation (e.g., GABA, dopamine, opiate, serotonin). The note with it: cited from earlier work.

Sequence of MT1 receptors (P48039 whole entry): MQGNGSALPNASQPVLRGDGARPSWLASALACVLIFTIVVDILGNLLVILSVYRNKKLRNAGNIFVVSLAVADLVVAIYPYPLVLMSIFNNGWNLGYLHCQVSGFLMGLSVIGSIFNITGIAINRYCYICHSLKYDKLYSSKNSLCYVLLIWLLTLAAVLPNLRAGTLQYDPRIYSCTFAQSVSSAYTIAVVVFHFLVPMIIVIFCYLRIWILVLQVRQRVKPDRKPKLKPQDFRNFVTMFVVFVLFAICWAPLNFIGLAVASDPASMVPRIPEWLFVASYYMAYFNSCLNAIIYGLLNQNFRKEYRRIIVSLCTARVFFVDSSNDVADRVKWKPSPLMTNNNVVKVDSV

Consider `CC(O)C(=O)NCCC1CCc2ccc3c(c21)CCO3` (centres unmarked) [M-II], for which the “binding affinity for MT1 receptor relative to ramelteon” value at MT1 receptors is reported as “about one-tenth”. For the same compound, the “binding affinity for MT2 receptor relative to ramelteon” value on MT2 receptors is on record as “one-fifth”. In addition, the “incidence of hepatic tumors” value in the series on hepatic tumors is recorded as “increase the incidence of hepatic tumors”.

Regarding `CCC(=O)NCC[C@@H]1CCc2ccc3c(c21)CCO3` [ramelteon], the “improvement of bioavailability, intranasal versus oral solution of same dose” value in series [1] was “over 20 fold”. Also, the “permeability through Caco-2 monolayer” value with Caco-2 monolayer is “high permeability”. For the same compound, the “increase of systemic exposure (AUC) after co-administration of fluvoxamine” value in series [2] (fluvoxamine, a strong CYP1A2 inhibitor) is on record as “approximately 190 fold”. In addition, the inter-subject variability result in series [2] (oral ramelteon) is “up to 100%”. The “affinity for other CNS receptors” value in series [3] was “no affinity”.

These data come from US20210113456A1, “PHARMACEUTICAL COMPOSITIONS OF RAMELTEON AND METHODS OF USE THEREOF” (MAXINASE LIFE SCIENCES LIMITED, priority 2017, published 2021).
